Active and inactive are the calls of the source. No cut-off for these calls is given here.
Key:
786-0 [1] = test: Antiproliferative activity against human 786-0 cells assessed as inhibition of cell growth incubated for 72 hrs by SRB assay; format: functional, cell-based; settings: 786-0, 72 h
KHOS/NP [2] = test: Antiproliferative activity against human KHOS cells assessed as inhibition of cell growth incubated for 72 hrs by SRB assay; format: functional, cell-based
[3] = molecular target: RAC-alpha serine/threonine-protein kinase (Homo sapiens, UniProt P31749); test: Inhibition of N-terminal GST-tagged human AKT1 (104 to 408 residues) expressed in baculovirus infected Sf21 cells incubated for 1 hr in presence of ATP by mobility shift assay
Chain of RAC-alpha serine/threonine-protein kinase (P31749 whole entry, the tested form may be a part): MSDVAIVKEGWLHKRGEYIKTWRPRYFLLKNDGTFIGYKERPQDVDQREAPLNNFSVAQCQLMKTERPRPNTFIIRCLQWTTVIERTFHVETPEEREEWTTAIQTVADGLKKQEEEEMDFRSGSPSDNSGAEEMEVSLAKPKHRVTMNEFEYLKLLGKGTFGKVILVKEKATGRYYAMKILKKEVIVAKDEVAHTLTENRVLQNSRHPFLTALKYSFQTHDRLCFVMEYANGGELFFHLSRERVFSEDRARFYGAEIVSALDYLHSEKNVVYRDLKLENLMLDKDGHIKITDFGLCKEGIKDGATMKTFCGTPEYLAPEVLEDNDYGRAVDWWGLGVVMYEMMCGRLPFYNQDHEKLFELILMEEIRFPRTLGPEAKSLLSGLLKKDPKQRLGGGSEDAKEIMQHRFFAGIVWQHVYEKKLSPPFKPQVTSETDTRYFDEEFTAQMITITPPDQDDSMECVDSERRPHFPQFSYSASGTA

HGC-27 = test: Antiproliferative activity against human HGC-27 cells assessed as inhibition of cell growth incubated for 72 hrs by SRB assay; format: functional, cell-based; settings: HGC-27, 72 h
hERG (KCNH2) = hERG (KCNH2) (Homo sapiens, UniProt Q12809); test: Inhibition of human ERG expressed in HEK293 cells at 3 uM by whole cell patch clamp method relative to control; format: cell-based; settings: HEK293 cells expressing hERG
Chain of hERG (KCNH2) (Q12809 whole entry): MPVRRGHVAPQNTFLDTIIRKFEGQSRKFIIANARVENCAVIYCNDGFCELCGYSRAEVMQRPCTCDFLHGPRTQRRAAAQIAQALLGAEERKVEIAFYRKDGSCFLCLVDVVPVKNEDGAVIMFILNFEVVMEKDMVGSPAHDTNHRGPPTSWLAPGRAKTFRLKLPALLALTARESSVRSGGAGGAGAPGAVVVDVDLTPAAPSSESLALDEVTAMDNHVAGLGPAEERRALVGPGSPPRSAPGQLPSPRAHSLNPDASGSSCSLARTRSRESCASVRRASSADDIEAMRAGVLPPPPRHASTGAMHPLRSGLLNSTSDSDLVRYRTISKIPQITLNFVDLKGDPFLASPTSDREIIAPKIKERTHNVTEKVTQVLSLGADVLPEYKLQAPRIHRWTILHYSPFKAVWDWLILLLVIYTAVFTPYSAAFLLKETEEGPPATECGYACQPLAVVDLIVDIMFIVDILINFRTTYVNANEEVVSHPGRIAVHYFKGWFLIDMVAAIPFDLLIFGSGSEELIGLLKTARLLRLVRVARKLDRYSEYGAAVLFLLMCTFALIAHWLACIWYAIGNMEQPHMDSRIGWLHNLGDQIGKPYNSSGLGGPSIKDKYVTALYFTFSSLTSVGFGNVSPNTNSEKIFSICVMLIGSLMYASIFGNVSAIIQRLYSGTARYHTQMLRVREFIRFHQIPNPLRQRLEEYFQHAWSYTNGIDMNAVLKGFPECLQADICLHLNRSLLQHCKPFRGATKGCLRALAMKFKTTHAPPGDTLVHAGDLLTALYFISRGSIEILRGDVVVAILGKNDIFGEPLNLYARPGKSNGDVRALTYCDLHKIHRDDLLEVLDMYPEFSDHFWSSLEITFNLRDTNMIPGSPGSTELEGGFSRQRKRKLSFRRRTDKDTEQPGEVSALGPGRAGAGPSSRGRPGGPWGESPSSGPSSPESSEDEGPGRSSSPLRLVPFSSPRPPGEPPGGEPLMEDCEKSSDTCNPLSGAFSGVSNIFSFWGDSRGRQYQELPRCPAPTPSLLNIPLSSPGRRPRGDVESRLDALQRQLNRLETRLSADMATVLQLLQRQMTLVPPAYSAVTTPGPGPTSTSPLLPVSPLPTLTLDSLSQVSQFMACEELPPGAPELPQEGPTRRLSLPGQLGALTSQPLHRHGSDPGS

HT-29 = test: Antiproliferative activity against human HT-29 cells assessed as inhibition of cell growth incubated for 72 hrs by SRB method; format: functional, cell-based; settings: HT-29, 72 h
OS-RC-2 = test: Antiproliferative activity against human OS-RC-2 cells assessed as inhibition of cell growth incubated for 72 hrs by SRB method; format: functional, cell-based; settings: OS-RC-2, 72 h
MDA-MB-231 = test: Antiproliferative activity against human MDA-MB-231 cells assessed as inhibition of cell growth incubated for 72 hrs by SRB method; format: functional, cell-based; settings: MDA-MB-231, 72 h
PC-3 = test: Antiproliferative activity against human PC3 cells assessed as inhibition of cell growth incubated for 72 hrs by SRB method; format: functional, cell-based; settings: PC-3, 72 h
U-87 MG = test: Antiproliferative activity against human U-87MG cells assessed as inhibition of cell growth incubated for 72 hrs by SRB method; format: functional, cell-based, U-87MG ATCC
HaCaT [4] = test: Induction of apoptosis in human HaCaT cells transfected with shAKT2 assessed as late apoptotic cells at 9 uM by flow cytometry analysis (reference value: 2.90%); format: functional
A549 = test: Antiproliferative activity against human A549 cells assessed as inhibition of cell growth incubated for 72 hrs by SRB method; format: functional, cell-based; settings: A549, 72 h
HaCaT [5] = test: Induction of apoptosis in human HaCaT cells transfected with shAKT2 assessed as decrease in cleaved caspase 3 level by Western blot analysis; format: functional, cell-based
OVCAR-8 = test: Antiproliferative activity against human OVCAR-8 cells assessed as inhibition of cell growth incubated for 72 hrs by SRB method; format: functional, cell-based; settings: OVCAR-8, 72 h
769-P = test: Antiproliferative activity against human 769-P cells assessed as inhibition of cell growth incubated for 72 hrs by SRB method; format: functional, cell-based
HaCaT [6] = test: Induction of apoptosis in human HaCaT cells transfected with shAKT3 assessed as viable cells at 9 uM by flow cytometry analysis (reference value: 78.17%); format: functional; settings: read-out: Activity
HaCaT [7] = test: Induction of apoptosis in human HaCaT cells transfected with shAKT1 assessed as late apoptotic cells at 9 uM by flow cytometry analysis (reference value: 18.52%); format: functional
[8] = Antiproliferative activity against human 95-D cells assessed as inhibition of cell growth incubated for 72 hrs by SRB method; format: functional, cell-based
HaCaT [9] = test: Induction of apoptosis in human HaCaT cells transfected with shAKT1 assessed as early apoptotic cells at 9 uM by flow cytometry analysis (reference value: 0.54%); format: functional
HaCaT [10] = test: Induction of apoptosis in human HaCaT cells assessed as late apoptotic cells at 9 uM by flow cytometry analysis (reference value: 17.13%); format: functional
HaCaT [11] = test: Induction of apoptosis in human HaCaT cells transfected with shAKT2 assessed as late apoptotic cells at 9 uM by flow cytometry analysis (reference value: 16.77%); format: functional
HaCaT [12] = test: Antiproliferative activity against human HaCaT cells assessed as inhibition of cell growth incubated for 72 hrs by SRB assay; format: cell-based
NCI-H1975 = test: Antiproliferative activity against human NCI-H1975 cells assessed as inhibition of cell growth incubated for 72 hrs by SRB method; format: functional, cell-based; settings: NCI-H1975, 72 h
HaCaT [13] = test: Induction of apoptosis in human HaCaT cells transfected with shAKT1 assessed as viable cells at 9 uM by flow cytometry analysis (reference value: 77.12%); format: functional; settings: read-out: Activity
HaCaT [14] = test: Induction of apoptosis in human HaCaT cells transfected with shAKT3 assessed as early apoptotic cells at 9 uM by flow cytometry analysis (reference value: 0.44%); format: functional
786-0 [15] = test: Antiproliferative activity against human 786-0 cells assessed as inhibition of cell growth incubated for 72 hrs by SRB method; format: functional, cell-based; settings: 786-0, 72 h
HaCaT [16] = test: Induction of apoptosis in human HaCaT cells transfected with shAKT2 assessed as viable cells at 9 uM by flow cytometry analysis (reference value: 79.95%); format: functional; settings: read-out: Activity
KHOS/NP [17] = test: Antiproliferative activity against human KHOS cells assessed as inhibition of cell growth incubated for 72 hrs by SRB method; format: functional, cell-based
786-0 [18] = test: Antitumor activity against human 786-0 cells xenografted in dosed BALB/c nude mouse assessed as tumor growth inhibition at 50 mg/kg, ig administered once daily for 22 days; format: functional; settings: 786-0, po, 528 h, time 22 day, read-out: TGI
Bel-7402 = test: Antiproliferative activity against human Bel-7402 cells assessed as inhibition of cell growth incubated for 72 hrs by SRB method; format: functional, cell-based; settings: Bel-7402, 72 h
U-251 = test: Antiproliferative activity against human U251 cells assessed as inhibition of cell growth incubated for 72 hrs by SRB method; format: functional, cell-based; settings: U-251, 72 h
KHOS/NP [19] = test: Antitumor activity against human KHOS cells xenografted in dosed BALB/c nude mouse assessed as tumor growth inhibition at 50 mg/kg, ig administered once daily for 22 days; format: functional; settings: po, 528 h, time 22 day, read-out: TGI
SMMC-7721 = test: Antiproliferative activity against human SMMC-7721 cells assessed as inhibition of cell growth incubated for 72 hrs by SRB method; format: functional, cell-based; settings: SMMC-7721, 72 h
HaCaT [20] = test: Induction of apoptosis in human HaCaT cells assessed as early apoptotic cells at 9 uM by flow cytometry analysis (reference value: 0.54%); format: functional
HaCaT [21] = test: Induction of apoptosis in human HaCaT cells transfected with shAKT1 assessed as necrotic cells at 9 uM by flow cytometry analysis (reference value: 3.82%); format: functional
HaCaT [22] = test: Induction of apoptosis in human HaCaT cells transfected with shAKT3 assessed as late apoptotic cells at 9 uM by flow cytometry analysis (reference value: 17.55%); format: functional
HaCaT [23] = test: Induction of apoptosis in human HaCaT cells assessed as viable cells at 9 uM by flow cytometry analysis (reference value: 79.16%); format: functional; settings: read-out: Activity
HaCaT [24] = test: Induction of apoptosis in human HaCaT cells transfected with shAKT2 assessed as early apoptotic cells at 9 uM by flow cytometry analysis (reference value: 0.38%); format: functional
HaCaT [25] = test: Induction of apoptosis in human HaCaT cells assessed as necrotic cells at 9 uM by flow cytometry analysis (reference value: 3.17%); format: functional
HaCaT [26] = test: Induction of apoptosis in human HaCaT cells transfected with shAKT3 assessed as necrotic cells at 9 uM by flow cytometry analysis (reference value: 3.84%); format: functional
SK-OV-3 = test: Antiproliferative activity against human SK-OV-3 cells assessed as inhibition of cell growth incubated for 72 hrs by SRB method; format: functional, cell-based; settings: SK-OV-3, 72 h
LNCaP = test: Antiproliferative activity against human LNCaP cells assessed as inhibition of cell growth incubated for 72 hrs by SRB method; format: functional, cell-based
HepG2 = test: Antiproliferative activity against human HepG2 cells assessed as inhibition of cell growth incubated for 72 hrs by SRB method; format: functional, cell-based; settings: HepG2, 72 h

`Cn1ncc(Br)c1-c1cc(F)c(C(=O)N[C@@H]2CNCC[C@H]2c2ccc(F)c(F)c2)c(Cl)c1` gave an IC50 (786-0 [1]) of 3.21 µM, an IC50 (KHOS/NP [2]) of 3.61 µM and an IC50 [3] of 137 nM. For the same molecule, the IC50 (HGC-27) was 3280 nM.

`Cn1nccc1-c1cc(F)c(C(=O)N[C@@H]2CNCC[C@H]2c2ccc(F)c(F)c2)c(F)c1` showed an IC50 (786-0 [1]) of 7.99 µM, an IC50 (KHOS/NP [2]) of 15.4 µM and an IC50 [3] of 26.3 nM. It also gave an IC50 (HGC-27) of 4590 nM.

For `Cn1nccc1-c1ccc(C(=O)N[C@@H]2CNCC[C@H]2c2cc(F)cc(F)c2)c(Cl)c1`, the IC50 (786-0 [1]) was 3.79 µM, the IC50 (KHOS/NP [2]) was 11.8 µM and the IC50 [3] was 15 nM. The IC50 (HGC-27) was 1240 nM.

`O=C(N[C@@H]1CNCC[C@H]1c1ccc(F)c(F)c1)c1ccc(-c2ccn[nH]2)cc1F` showed an IC50 (786-0 [1]) of 7.15 µM, an IC50 (KHOS/NP [2]) of 10.7 µM and an IC50 [3] of 83 nM. It also gave an IC50 (HGC-27) of 4340 nM.

`Cn1nccc1-c1cc(F)c(C(=O)N[C@@H]2CNCC[C@H]2c2ccc(F)c(F)c2)c(Cl)c1` showed an IC50 (786-0 [1]) of 2.2 µM, an IC50 (KHOS/NP [2]) of 3.89 µM and an IC50 [3] of 47 nM. The IC50 (HGC-27) was 1700 nM.

`Cn1ncc(Br)c1-c1cc(F)c(C(=O)N[C@@H]2CNCC[C@H]2c2ccc(F)c(F)c2)cc1F` showed an IC50 (786-0 [1]) of 1.9 µM, an IC50 (KHOS/NP [2]) of 3.06 µM and an IC50 [3] of 66.2 nM. For the same molecule, the IC50 (HGC-27) was 1790 nM.

In the case of `Cn1ncc(Cl)c1-c1cc(F)c(C(=O)N[C@@H]2CNCC[C@H]2c2ccc(F)c(F)c2)cc1F`, the IC50 [3] is reported as 48.9 nM.

Work on `Cn1nccc1-c1ccc(C(=O)N[C@@H]2CNCC[C@H]2c2ccc(F)c(F)c2)cc1F` yielded an inhibition at 3 µM (hERG (KCNH2)) of 10.7%, an IC50 (786-0 [1]) of 0.95 µM and an IC50 (KHOS/NP [2]) of 7.43 µM. For the same molecule, the IC50 [3] was 2.7 nM and the IC50 (HGC-27) was 180 nM.

With `NC1(C(=O)N[C@@H](CCO)c2ccc(Cl)cc2)CCN(c2nc[nH]c3nccc2-3)CC1` [CAPIVASERTIB] the IC50 (HT-29) was 36.9 µM, the IC50 (OS-RC-2) was 53.4 µM and the IC50 (MDA-MB-231) was 60.5 µM. It also gave an IC50 (PC-3) of 82.6 µM, an IC50 (U-87 MG) of 50.6 µM and an Activity (HaCaT [4]) of 3.15%. The IC50 (A549) was 23.7 µM, the Activity (HaCaT [5]) was “Active” and the IC50 (OVCAR-8) was 4.48 µM. It also gave an IC50 (769-P) of 10.8 µM, a viability at 9 µM (HaCaT [6]) of 46% and an Activity (HaCaT [7]) of 47.84%. The IC50 [8] was 2320 nM, the Activity (HaCaT [9]) was 1.44% and the Activity (HaCaT [10]) was 47.55%. It also gave an Activity (HaCaT [11]) of 25.71%, an IC50 (HaCaT [12]) of 4.2 µM and an IC50 (NCI-H1975) of 8.23 µM. It also gave a viability at 9 µM (HaCaT [13]) of 44.7%, an Activity (HaCaT [14]) of 1.27% and an IC50 (786-0 [15]) of 23.3 µM. For the same molecule, the viability at 9 µM (HaCaT [16]) was 70.3%, the IC50 (KHOS/NP [17]) was 40.4 µM and the inhibition in vivo at 50 mg/kg (786-0 [18]) was 47.1%. For the same molecule, the IC50 (Bel-7402) was 49.6 µM, the IC50 (U-251) was 14.2 µM and the inhibition in vivo at 50 mg/kg (KHOS/NP [19]) was 33.9%. The IC50 (SMMC-7721) was 84.1 µM, the Activity (HaCaT [20]) was 1.34% and the Activity (HaCaT [21]) was 5.98%. It also gave an Activity (HaCaT [22]) of 46.52%, a viability at 9 µM (HaCaT [23]) of 44% and an Activity (HaCaT [24]) of 0.79%. For the same molecule, the Activity (HaCaT [25]) was 7.13%, the Activity (HaCaT [26]) was 6.23% and the IC50 (SK-OV-3) was 6.32 µM. For the same molecule, the IC50 (LNCaP) was 460 nM and the IC50 (HepG2) was 6.7 µM.

In the case of `Cn1nccc1-c1cc(F)c(C(=O)N[C@@H]2CNCC[C@H]2c2ccc(F)cc2)c(F)c1`, the IC50 (786-0 [1]) is reported as 25.5 µM, the IC50 (KHOS/NP [2]) is reported as 29.1 µM and the IC50 [3] is reported as 107 nM. For the same molecule, the IC50 (HGC-27) was 7270 nM.

Reference: ChEMBL document CHEMBL4828735, “Discovery of N-((3S,4S)-4-(3,4-Difluorophenyl)piperidin-3-yl)-2-fluoro-4-(1-methyl-1H-pyrazol-5-yl)benzamide (Hu7691), a Potent and Selective Akt Inhibitor That Enables Decrease of Cutaneous Toxicity” (J Med Chem, 2021)
